In article PMC4188015 (Acta Crystallographica Section D: Biological Crystallography, 2014):
Where two headings read alike, the source gives them in different places. Values belong to the substance of their own block, whether it stands above or below them.

How the values were obtained:
[1] = ITC; n = 8; ref Antolikova et al. (2011); listed as wild-type human insulin; read-out: K diss (dimer↔monomer); cited from earlier work
[2] = molecular target: IR site 2; conditions: ref Kiselyov et al., 2009; read-out: K d, IR low-affinity site 2; cited from earlier work
Description: (§1) Extensive mutagenesis and cross-linking studies of both insulin and IR led to the discovery and mapping of two sites on the IR that are responsible for engaging with the hormone. […] The hormone–receptor interaction events are comp ...

[3] = tested on: IR-B; conditions: single mutation; ref Glendorf et al. (2011); cited from earlier work
Description: The IR-B:IR-A specificity ratio of insulin analogues is of considerable interest owing to IR-B being the dominant (∼90–95%) receptor isoform in the liver (Moller et al., 1989[▶]). This, together with the anatomic proximity of the pancreas and the liver (short hepatic portal vein connectivity), makes the liver the major glucose homeostatic organ.

[4] = tested on: IR; conditions: ref Žáková et al., 2013; cited from earlier work
Description: The full-length insulin B26-site mutants AsnB26, AspB26, PheB26, GlnB26 and GlyB26 have been prepared and characterized. […] In the cases of [PheB26]-insulin and [GlyB26]-insulin, we aimed to investigate the structural consequences of the loss of the TyrB26 side-chain hydroxyl group or the whole TyrB26 side chain, respectively. The affinities of the analogues for the IR-A isoform (IM-9 lymphocytes) and of selected ...

[5] = tested on: both rat IR-A and IR-B isoforms; test: Receptor binding, rat adipocyte plasma membranes
Method: Receptor-binding studies with the insulin receptor in plasma membranes containing both rat IR-A and IR-B isoforms prepared from epididymal adipose tissue of adult male Wistar rats were performed and analyzed according to Žáková et al. (2008[▶]). Binding data were analyzed using GraphPad Prism 5. Half-maximal inhibition values of binding of [^125I]-insulin to the receptor (IC50) were obtained using a nonlinear regression method and a one-site fitting program.

[6] = tested on: both rat IR-A and IR-B isoforms; conditions: rat adipocytes, ref Jiracek et al. (2010), cited from earlier work
Description: In the cases of [PheB26]-insulin and [GlyB26]-insulin, we aimed to investigate the structural consequences of the loss of the TyrB26 side-chain hydroxyl group or the whole TyrB26 side chain, respectively. The affinities of the analogues for the IR-A isoform (IM-9 lymphocytes) and of selected ...

[7] = Isothermal microcalorimetry (ITC) of dimerization (dimer-monomer dissociation); type: physicochemical; conditions: mean ± spread, n = 3, read-out: K diss (dimer↔monomer)
Method: Investigations of the dimerization abilities of selected insulin analogues were performed as described in detail previously (Antolikova et al., 2011[▶]).

[8] = molecular target: IR-A; conditions: ref Morcavallo et al., 2012; read-out: K d for IR-A; cited from earlier work
Description: as §1

Substance: Human insulin
Kd [1]: ~9 µM
Kd [2]: ~400 nM

Substance: [AsnB25]-insulin
IR-B specificity [3]: doubling of the IR-B specificity

Substance: [GluB26,LysB28,ProB29]-insulin
binding affinity relative to human insulin [4]: 193%

Potency (relative receptor-binding affinity), rat IR-A and IR-B ([5]; (IC50 of human insulin/IC50 of analogue) × 100, rat adipocytes): ~70%
IC50 ([5]; half-maximal inhibition of binding of human 125I-TyrA14 insulin, rat adipose plasma membranes, mean ± SE (n), SEM, read-out: IC50 ± SE for both rat IR-A and IR-B in rat adipocytes): 1.16 ± 0.12 nM
Substance: [GlyB26]-insulin

Kd [7]: 27.2 ± 7.4 µM
Substance: [PheB26]-insulin
Potency (relative receptor-binding affinity), rat IR-A and IR-B [6]: 46 ^¶ %
Potency (relative receptor-binding affinity), rat IR-A and IR-B ([6]; listed as PheB26): less than 50%

Substance: insulin-like growth factor II [IGF-II]
Kd [8]: ~4 nM
